42 compounds from the Deep4Chem optical property database can be followed below.

This data set is described as follows: solvent given as SMILES.

Each structure is given as a SMILES string.

Consider `Clc1ccc(-c2nc(-c3ccccc3)sc2N(c2ccccc2)c2ccccc2)cc1`, for which, where the note is “in ClC(Cl)Cl”, the emission maximum turned out to be 463 nm.
With `c1ccc(Nc2nc(Nc3ccccc3)nc(Nc3ccc4c5cccc6cccc(c7cccc3c74)c65)n2)cc1`, the emission maximum runs as follows: (in C1COCCO1) 487 nm; (in CC#N) 492 nm; (in CCCCOCCCC) 486 nm; (in CCOC(C)=O) 488 nm.
As to `CN(C)c1ccc2c3c(ccc2c1)C(=O)CCC3`, the emission maximum runs as follows: (in C1CCCCC1) 407 nm; (in CC#N) 448 nm; (in CC(C)O) 482 nm; (in CCC(C)=O) 443 nm; (in CCO) 489 nm; (in CCOC(C)=O) 429 nm. The emission maximum (in CS(C)=O) is listed as 453 nm, the emission maximum (in Cc1ccccc1) amounted to 417 nm, the emission maximum (in ClCCl) was found to be 440 nm and the emission maximum (in Clc1ccccc1) amounted to 423 nm.
Consider `Cc1cc2c(o1)=CC1=Cc3cc4oc(C)cc4n3[B-](F)(F)[N+]=21`, for which, under “in ClC(Cl)Cl”, the emission maximum is given as 583 nm.
On to `C#CCOc1ccc(/C=C/C2=[N+]3C(=C(c4ccc(N5CCCCC5)cc4)c4c(C)cc(C)n4[B-]3(F)F)C(C)=C2)cc1`, for which the emission maximum (in CO) is 582 nm.
Compound `c1ccc2cc(-c3c4ccccc4c(-c4ccc(-c5ccc(-n6c7ccccc7c7ccccc76)cc5)cc4)c4ccccc34)ccc2c1` returned an emission maximum (in ClCCl) of 427 nm.
Still for that read-out and setting: under `c1ccc([Si]2(c3ccccc3)c3ccccc3-c3cc4c(cc32)-c2ccccc2[Si]4(c2ccccc2)c2ccccc2)cc1` stands 395 nm.
In the case of `ClC(Cl)=C1c2ccccc2C(C2(Cl)c3ccccc3C(=C(Cl)Cl)c3ccccc32)c2ccccc21` (configuration not stated), the emission maximum reads like this: (in C1CCCCC1) 425.81 nm; (in CCCCCO) 442.64 nm; (in CCCCO) 446.26 nm; (in CCCO) 443.26 nm; (in CCO) 447.14 nm; (in CO) 449.43 nm.
Regarding `Cc1ccc(-c2ccc(/C=C/c3cccn3C)cn2)nc1`, the emission maximum reads like this: (in C1COCCO1) 464 nm; (in CC#N) 488 nm; (in CCCCCC) 436 nm; (in CCO) 501 nm; (in CN(C)C=O) 493 nm; (in CO) 507 nm. Moreover, the emission maximum is, setting by setting: (in CS(C)=O) 500 nm; (in Cc1ccccc1) 459 nm; (in ClC(Cl)Cl) 476 nm; (in c1ccccc1) 464 nm.
Turning to `O=c1c2ccccc2n(-c2ccc(-c3ccc(-n4c5ccccc5c(=O)c5ccccc54)cc3)cc2)c2ccccc12`, for the setting “in ClCCl”, the emission maximum is on record as 405 nm.
In turn, `CSC1=C(C)C2=C(c3ccc(C)cc3)c3c(C)c(Cl)c(C)n3[B-](F)(F)[N+]2=C1C` gave an emission maximum (in C1CCOC1) of 655 nm.
In turn, `CC1=CC(C)(C)N(C)c2cc3c(cc21)C(c1ccc(Br)cc1)=c1cc2c(cc1O3)=[N+](C)C(C)(C)C=C2C` yielded an emission maximum (in CCO) of 616 nm.
Consider `c1ccc(-c2cc3cccc4cc(-c5ccccc5)c5cc(-c6cc7[b-]8c(c6)c(-c6ccccc6)cc6cccc(cc7-c7ccccc7)[n+]86)cc2[b-]5[n+]34)cc1`, for which the emission maximum (in C1CCCCC1) is reported as 521 nm.
Take `COc1ccc(-c2ccc3c(c2)c2cc(-c4ccc(OC)cc4)ccc2n3-c2ccc(C(=O)c3ccc4sc5ccccc5c4c3)nc2)cc1`: the emission maximum is 487.2 nm (in Cc1ccccc1) and 493 nm (in c1cc(-n2c3ccccc3c3ccccc32)cc(-n2c3ccccc3c3ccccc32)c1).
Compound `CCOC(=O)COc1ccc(/C=C/C2=C3C(C)=CC(C)=[N+]3[B-](F)(F)n3c2c2ccccc2c3-c2[nH]c(C)cc2C)cc1` returned an emission maximum (in ClCCl) of 687 nm.
In the case of `CC(C)(C)c1ccc2c(c1)c1cc(C(C)(C)C)ccc1n2-c1ccc(-n2c3ccc(C(C)(C)C)cc3c3cc(C(C)(C)C)ccc32)c(C(=O)c2ccncc2)c1`, the emission maximum reads like this: (in C1CCOC1) 519.49 nm; (in CCCCCC) 476.84 nm; (in Cc1ccccc1) 508 nm; (in ClCCl) 561.4 nm.
The compound `O=S(=O)([O-])c1ccc([O-])c2ccccc12` had an emission maximum (in O) of 435 nm.
For `Cc1cc2c3ccccc3sc2c2[nH]c3ccccc3c12`, the emission maximum (in ClCCl) is listed as 365 nm.
On to `c1cc2c3ccc[n+]4cccc(c5ccc[n+](c1)c25)c34`, for which the emission maximum was determined as 442 nm (in CC#N), 443 nm (in CS(C)=O), 441 nm (in C[N+](=O)[O-]) and 441 nm (in O).
In turn, `CNc1cccc2c1C(=O)c1ccccc1-2` gave an emission maximum (in C1CCCCC1) of 497 nm, an emission maximum (in CC#N) of 533 nm, an emission maximum (in CCO) of 542 nm and an emission maximum (in c1ccccc1) of 519 nm.
In turn, `c1cc2cc(c1)c1cccc(c1)c1cccc(c1)c1cccc(c1)c1cccc(c1)c1cccc2c1` returned an emission maximum (in ClC(Cl)Cl) of 337 nm.
On to `F[B-]12Oc3ccccc3-c3c4[n+]5c(c([n+]31)-c1ccccc1O2)-c1ccccc1O[B-]5(F)Oc1ccccc1-4`, for which the emission maximum (in ClCCl) was determined as 623 nm.
Turning to `CN(C)CCCN1c2ccccc2Sc2ccc(C(F)(F)F)cc21`, the emission maximum is listed as 470 nm (in CC#N), 463 nm (in CO) and 475 nm (in O).
Turning to `COc1ccc2c(c1)c1cc(OC)ccc1n2-c1cc(Cl)c([C](c2c(Cl)cc(Cl)cc2Cl)c2c(Cl)cc(Cl)cc2Cl)c(Cl)c1`, the emission maximum (in C1CCCCC1) is on record as 728 nm.
As to `CN(C)c1ccc2c(-c3ccc(C(=O)[O-])cc3C(=O)[O-])c3ccc(=[N+](C)C)cc-3oc2c1`, the emission maximum (in CCO) is recorded as 569 nm and the emission maximum (in O) is 578 nm.
Consider `CN(C)c1ccc(/C=C/C(=O)c2ccc(Cl)cc2)cc1`, for which the emission maximum is listed as 516 nm (in C1CCOC1); 540 nm (in CC#N); 521 nm (in CC(=O)O); 532 nm (in CC(C)=O); 542 nm (in CCO); 542 nm (in CN(C)C=O). Moreover, the emission maximum was determined as 544 nm (in CO), 486 nm (in Cc1ccccc1), 522 nm (in ClC(Cl)Cl) and 488 nm (in c1ccccc1).
As for `CCCCCCCc1ccc(C2=[N+]3C(=C4c5cc(OCC(CC)CC)c(-c6ccc(CCCCCCC)o6)n5[B-](F)(F)[n+]5nnn(c54)[B-]3(F)F)C=C2OCC(CC)CC)o1`, the emission maximum by setting is: (in C1CCOC1) 829 nm; (in ClCCl) 835 nm.
As to `COC(=O)C(NC(=O)OC(C)(C)C)c1ccc2oc(-c3cc(OC)ccc3OC)nc2c1` (configuration not stated), the emission maximum is recorded as 364 nm (in CC1CCCCC1), 390 nm (in CC#N) and 405 nm (in CO).
Regarding `COc1ccccc1-c1nc2c3cccnc3c3ncccc3c2n1-c1ccccc1`, for the setting “in Cc1ccccc1”, the emission maximum was 396 nm.
As for `CC(C)(C)c1ccc(-c2nc(-c3ccc(C(C)(C)C)cc3)nc(-c3ccc(-n4c5ccccc5c5c6oc7ccccc7c6ccc54)c(C#N)c3)n2)cc1`, the emission maximum (in C1CCOC1) is given as 450.74 nm.
As to `COc1ccc(/C=C/C2=[O+][B-](F)(F)OC(/C=C/c3ccc(OC)c4ccccc34)=C2c2ccccc2)c2ccccc12`, the emission maximum (in CC#N) was determined as 649 nm; the emission maximum (in CC(C)=O) is reported as 631 nm; the emission maximum (in CCOC(C)=O) was determined as 603 nm; the emission maximum (in CCOCC) is recorded as 583 nm; the emission maximum (in ClC(Cl)(Cl)Cl) came out at 577 nm; the emission maximum (in ClCCl) was 633 nm.
`O=C1/C(=C2\Sc3ccc(S(=O)(=O)Cl)cc3C2=O)Sc2ccc(S(=O)(=O)Cl)cc21`: the emission maximum worked out at 576 nm (in C1COCCO1) and 624 nm (in CS(C)=O).
Take `CCC1(CC)c2cc(C#Cc3cc(C#Cc4ccc5c(c4)C(CC)(CC)c4cc(N(c6ccccc6)c6ccccc6)ccc4-5)c4ccc5c(C#Cc6ccc7c(c6)C(CC)(CC)c6cc(N(c8ccccc8)c8ccccc8)ccc6-7)cc(C#Cc6ccc7c(c6)C(CC)(CC)c6cc(N(c8ccccc8)c8ccccc8)ccc6-7)c6ccc3c4c65)ccc2-c2ccc(N(c3ccccc3)c3ccccc3)cc21`: the emission maximum was found to be 524 nm (in C1CCCCC1); 552 nm (in C1CCOC1); 545 nm (in CCOC(C)=O); 557 nm (in CN(C)C=O); 535 nm (in Cc1ccccc1); 545 nm (in ClC(Cl)Cl). Also, under “in ClCCl”, the emission maximum came out at 567 nm.
Take `CC1(C)C2=C(c3ccc(N(c4ccccc4)c4ccccc4)cc31)P(=O)(c1ccccc1)c1ccccc12` (configuration not stated): the emission maximum reads like this: (in CC#N) 580 nm; (in CO) 598 nm; (in Cc1ccccc1) 511 nm.
For the compound `Cc1cccc2cc3c(=O)n(C)c(=O)n(C)c3nc12`, the emission maximum (in CC#N) worked out at 417 nm; the emission maximum (in CC(C)O) is given as 421 nm; the emission maximum (in CCO) was found to be 423 nm; the emission maximum (in CO) stood at 425 nm; the emission maximum (in ClC(Cl)Cl) came to 417 nm; the emission maximum (in ClCCl) worked out at 417 nm.
As for `Cc1c2c(c(C)c3ccccc13)-c1cc3nc4ccccc4nc3cc1-2`, for the setting “in ClC(Cl)Cl”, the emission maximum is on record as 454 nm.
Consider `Nc1ccc2nc(-c3ccccc3)c(=O)oc2c1`, for which, where the note is “in c1ccccc1”, the emission maximum was 480 nm.
`CC(C)(C)c1cc(-c2ccc3c(-c4cc(C(C)(C)C)cc(C(C)(C)C)c4)cc4c5cc(-c6cc(C(C)(C)C)cc(C(C)(C)C)c6)ccc5c(-c5cc(C(C)(C)C)cc(C(C)(C)C)c5)cc4c3c2)cc(C(C)(C)C)c1` gave an emission maximum (in ClCCl) of 401 nm.
For the setting “in C1CCCCC1”, `Oc1cccc2ccccc12` had an emission maximum of 344.23 nm.
Under “in Cc1ccccc1”, `c1ccc(N2c3ccc4ccccc4c3-c3c4ccccc4cn[n+]3[B-]2(c2ccccc2)c2ccccc2)cc1` came in with an emission maximum of 657 nm.
Compound `CCc1cccc(CC)c1-c1c2ccccc2c(C#Cc2ccccc2)c2cc3ccccc3cc12` had an emission maximum (in ClCCl) of 538 nm.
Where the note is “in CC#N”, `Cc1cccc2nc3[nH]c(=O)[nH]c(=O)c3nc12` showed an emission maximum of 452 nm.
